In US10130830B2, “Preservative systems comprising cationic surfactants” (Laboratorios Miret, S.A., priority 2005, dated 2018):
Values joined by “and” are separate entries in the source; they are usually repeats but may differ in a detail not shown here. Equal values may be shown once.

Legend:
Moulds = experiment: Preservative action in cosmetic products (Antimicrobial Effectiveness Testing USP 24th Edition), moulds; assay type: cell-based, Aspergillus niger; details: Example 10, oil in water emulsion with non-ionic surfactant, 0.2 g/kg
Source text: (§1) (1) Determination of Preservative Action in Cosmetic Products. […] This assay consists of the contamination of the protecting formulations with an inoculum mixture of 10^8 cfu/ml concentration, for each of the micro-organisms, and the determination of the number of viable cells in time. This inoculum mixture is composed of the following microorganisms: [table] The cosmetic composition to be analysed is divided into sterile containers with 50 g of product for each flask. Each container is inoculated with 0.5 ml of inoculum (10^8 cfu/ml). The target concentration is 10^6 cfu/ml, approximately. All the containers are kept at a temperature between 20-25° C. and are protected from light. The level of the microbial contamination is checked at 0 hours, 7 days, 14 days and 28 days. The number of colonies is evaluated by dilution in buffer peptone with the appropriate neutraliser agent of the preservative. The culture media used for counting the microorganisms are: […] (2) Determination of Preservative Action in Chicken Breast. Process of Preparation • 1. Fresh chicken breast was diced to pieces • 2. Brine (8.70% sodium chloride and 4.35% tripolyphosphate in water) was added to the fresh chicken in an amount of 11.5 g brine per 88.5 g meat in the control preparation and 11.5 g brine and 88.4 g meat in the preparations treated with preservative. • 3. Brine and meat were mixed during 15 minutes, in the preparations treated with preservative the preservative was added after 14 minutes in an amount of 0.2 g/kg. • 4. Vacuum refrigerate tumbling was made during 30 minutes. • 5. Samples were vacuum-packed in sterile bags and they were cooked at 85° C. for 30 minutes. • 6. The cooked chicken was refrigerated at 4° C. • 7. The cooked chicken was diced in irregular shapes. • 8. Then, the nuggets were stored at 10° C. in sterile vacuum-packed bags. Analysis

aerobic total count = experiment: Preservative action in cooked chicken breast, aerobic total count; assay type: cell-based; details: Example 9, cooked chicken, 0.2 g/kg
Protocol: (2) Determination of Preservative Action in Chicken Breast. Process of Preparation • 1. Fresh chicken breast was diced to pieces • 2. Brine (8.70% sodium chloride and 4.35% tripolyphosphate in water) was added to the fresh chicken in an amount of 11.5 g brine per 88.5 g meat in the control preparation and 11.5 g brine and 88.4 g meat in the preparations treated with preservative. • 3. Brine and meat were mixed during 15 minutes, in the preparations treated with preservative the preservative was added after 14 minutes in an amount of 0.2 g/kg. • 4. Vacuum refrigerate tumbling was made during 30 minutes. • 5. Samples were vacuum-packed in sterile bags and they were cooked at 85° C. for 30 minutes. • 6. The cooked chicken was refrigerated at 4° C. • 7. The cooked chicken was diced in irregular shapes. • 8. Then, the nuggets were stored at 10° C. in sterile vacuum-packed bags. Analysis […] Dilutions were made in buffered peptone water. Tryptone Soya Agar was harvested with each dilution and incubated at 35° C. for 48 hours. The mean value in log cfu/g of three samples per treatment and day of analysis was calculated.

Aerobes = experiment: Preservative action in cosmetic products (Antimicrobial Effectiveness Testing USP 24th Edition), aerobes; assay type: cell-based; details: Example 10, oil in water emulsion with non-ionic surfactant, 0.2 g/kg
Source text: as §1

Yeast = experiment: Preservative action in cosmetic products (Antimicrobial Effectiveness Testing USP 24th Edition), yeast; assay type: cell-based, Candida albicans; details: Example 10, oil in water emulsion with non-ionic surfactant, 0.2 g/kg
Source text: as §1

[1] = day 56 (8 weeks), mean of triplicate

SMILES | Moulds count (Moulds; 0 days) | Moulds count (Moulds; 7 days) | Moulds count (Moulds; 14 days) | aerobic total count, mean (aerobic total count; day 0, mean of triplicate) | aerobic total count (aerobic total count; day 0, samples 1-3) | aerobic total count, mean (aerobic total count; day 7, mean of triplicate) | aerobic total count (aerobic total count; day 7, samples 1-3) | aerobic total count, mean (aerobic total count; day 14, mean of triplicate) | aerobic total count (aerobic total count; day 14, samples 1-3) | aerobic total count, mean (aerobic total count; day 21, mean of triplicate) | aerobic total count (aerobic total count; day 21, samples 1-3) | aerobic total count, mean (aerobic total count; day 28, mean of triplicate) | aerobic total count (aerobic total count; day 28, samples 1-3) | aerobic total count, mean (aerobic total count; day 35, mean of triplicate) | aerobic total count (aerobic total count; day 35, samples 1-3) | aerobic total count, mean (aerobic total count; day 42, mean of triplicate) | aerobic total count (aerobic total count; day 42, samples 1-3) | aerobic total count, mean (aerobic total count; day 49, mean of triplicate) | aerobic total count (aerobic total count; day 49, samples 1-3) | aerobic total count, mean (aerobic total count; [1]) | further results
CC(=O)O.CCCCCCCCCCCC(=O)N[C@@H](CCCN=C(N)N)C(=O)OCC [LAE Ac, LAE acetate] | 4.1 log cfu/g | <2.0 log cfu/g | <2.0 log cfu/g | 2.0 log cfu/g | 2.0 log cfu/g | 2.0 log cfu/g | 2.0 log cfu/g | 2.0 log cfu/g | 2.0 log cfu/g | 2.1 log cfu/g | 2.1 log cfu/g and 2.3 log cfu/g and 2.0 log cfu/g | 2.5 log cfu/g | 3.0 log cfu/g and 2.1 log cfu/g and 2.3 log cfu/g | 2.5 log cfu/g | 2.3 log cfu/g and 2.8 log cfu/g and 2.5 log cfu/g | 3.1 log cfu/g | 3.1 log cfu/g and 2.8 log cfu/g and 3.3 log cfu/g | 3.4 log cfu/g | 3.3 log cfu/g and 3.0 log cfu/g and 3.9 log cfu/g | 3.9 log cfu/g | aerobic total count (aerobic total count; day 56, samples 1-3): 3.8 log cfu/g and 4.0 log cfu/g and 3.9 log cfu/g; Aerobes count (Aerobes; 0 days): 6.0 log cfu/g; Aerobes count (Aerobes; 7 days): 2.5 log cfu/g; Aerobes count (Aerobes; 14 days): <2.0 log cfu/g; Yeast count (Yeast; 0 days): 5.3 log cfu/g; Yeast count (Yeast; 7 days): 2.1 log cfu/g; Yeast count (Yeast; 14 days): <2.0 log cfu/g
CCCCCCCCCCCC(=O)N[C@@H](CCCN=C(N)N)C(=O)OCC.N[C@@H](CCC(=O)O)C(=O)O [LAE Gl, LAE glutamate] | 4.1 log cfu/g | <2.0 log cfu/g | <2.0 log cfu/g | 2.0 log cfu/g | 2.0 log cfu/g | 2.0 log cfu/g | 2.0 log cfu/g | 2.0 log cfu/g | 2.0 log cfu/g | 2.1 log cfu/g | 2.1 log cfu/g and 2.2 log cfu/g and 2.0 log cfu/g | 2.3 log cfu/g | 2.5 log cfu/g and 2.1 log cfu/g and 2.2 log cfu/g | 2.4 log cfu/g | 2.3 log cfu/g and 2.5 log cfu/g | 2.7 log cfu/g | 2.6 log cfu/g and 2.8 log cfu/g | 3.2 log cfu/g | 3.2 log cfu/g and 3.0 log cfu/g and 3.5 log cfu/g | 3.5 log cfu/g | aerobic total count (aerobic total count; day 56, samples 1-3): 3.5 log cfu/g and 3.8 log cfu/g and 3.3 log cfu/g; Aerobes count (Aerobes; 0 days): 6.1 log cfu/g; Aerobes count (Aerobes; 7 days): 2.3 log cfu/g; Aerobes count (Aerobes; 14 days): <2.0 log cfu/g; Yeast count (Yeast; 0 days): 5.6 log cfu/g; Yeast count (Yeast; 7 days): 2.4 log cfu/g; Yeast count (Yeast; 14 days): <2.0 log cfu/g
CC(O)C(=O)O.CCCCCCCCCCCC(=O)N[C@@H](CCCN=C(N)N)C(=O)OCC [LAE La, LAE lactate] | 4.2 log cfu/g | <2.0 log cfu/g | <2.0 log cfu/g | 2.0 log cfu/g | 2.0 log cfu/g | 2.0 log cfu/g | 2.0 log cfu/g | 2.0 log cfu/g | 2.0 log cfu/g | 2.2 log cfu/g | 2.1 log cfu/g and 2.4 log cfu/g and 2.0 log cfu/g | 2.3 log cfu/g | 2.6 log cfu/g and 2.1 log cfu/g and 2.3 log cfu/g | 2.7 log cfu/g | 2.8 log cfu/g and 2.5 log cfu/g | 3.3 log cfu/g | 3.1 log cfu/g and 3.5 log cfu/g and 3.3 log cfu/g | 3.6 log cfu/g | 3.3 log cfu/g and 3.6 log cfu/g and 3.9 log cfu/g | 4.1 log cfu/g | aerobic total count (aerobic total count; day 56, samples 1-3): 4.2 log cfu/g and 4.0 log cfu/g and 3.9 log cfu/g; Aerobes count (Aerobes; 0 days): 6.1 log cfu/g; Aerobes count (Aerobes; 7 days): 2.2 log cfu/g; Aerobes count (Aerobes; 14 days): <2.0 log cfu/g; Yeast count (Yeast; 0 days): 5.4 log cfu/g; Yeast count (Yeast; 7 days): 2.2 log cfu/g; Yeast count (Yeast; 14 days): <2.0 log cfu/g
